Test results published in patent US7090834B1, “Vascular endothelial cell growth factor variants and uses thereof” (Genentech, Inc., priority 1999, dated 2006).

B1: Flt-sel: VEGF (1–109) variant with alanine substitutions at Ile 43, Ile 46, Gln 79 and Ile 83; Flt-1 selective (protein)
chain: APMAEGGGQNHHEVVKFMDVYQRSYCHPIETLVDIFQEYPDEAEYAFKPSCVPLMRCGGCCNDEGLECVPTEESNITMAIMRAKPHQGQHIGEMSFLQHNKCECRPKKD

Assays:
HUVEC cells = assay: HUVEC migration, modified Boyden chamber assay; type: cell-based, human; settings: 18 hour assay, FIG. 14A
Procedure: One of the central aspects of VEGF action on endothelial cells is its ability to act as a chemoattractant and stimulate the migration of endothelial cells. HUVEC cell migration was analyzed in a modified Boyden chamber assay as follows.
Falcon 8.0 micron filter inserts (Falcon 3097) were coated with type 1 collagen (VITROGEN, COHESION). HUVEC (obtained from Cell Systems, <passage 8) were grown in Cell Systems complete media (4ZO-500) with 10% FCS. Cells were trypsinized and transferred to EBM (Endothelial basal media, Clonetics) with 0.1% BSA for the assay. Cells were plated at 5×10^4 per upper chamber. […] The assay was routinely an 18 hour assay at 37° C. For the LY294002 inhibitor experiments, cells were allowed to adhere for 30 minutes prior to addition of the inhibitor. 20 minutes after inhibitor addition, VEGF was added to the bottom well and the assay was allowed to proceed for only 4 hours to avoid the occurrence of apoptosis associated with the treatment of these primary cells with LY294002 (purchased from Biomol).
Cells were removed from the upper side of the membrane by scraping with a polyurethane swab and then the remaining cells on the bottom side of the membrane were fixed with methanol. Cells were stained with Yo-Pro Iodide nuclear stain (Molecular Probes) and counted under low power fluorescence using an Image-Pro cell recognition program.

[1] = tested on: ERK1 and ERK2 in HUVEC cells; assay: Activation of MAP kinases, ERK1/ERK2 phosphorylation Western blot; type: cell-based, human; settings: 50 ng/ml or 10 ng/ml, 5 minutes, FIG. 12A
Procedure: (§1) Passage 4–7 HUVEC cells (Cell Systems, Kirkland, Wash.) were grown in Cell System's complete medium (AZ0-500) with 10% fetal calf serum and growth factors on gelatin-coated dishes and made quiescent by 14 hour starvation in 0.2% serum. […] The HUVEC cells were then lysed in 0.5–1 ml RIPA buffer containing 0.1 mM sodium orthovanadate, 5 mM para-nitrophenylphosphate, 10 mM sodium fluoride, 0.5 micromolar okadaic acid and a protease inhibitor cocktail (Roche MB 1836145). Western blot analysis was then conducted, probing for phosphorylated ERK1 or ERK2 using anti-phospho ERK antiserum (Promega).

PLC-gamma in HUVEC cells = assay: PLC-gamma tyrosine phosphorylation after immunoprecipitation; type: cell-based, human; settings: 20 ng/ml, 5 minutes, FIG. 13A
Procedure: In order to determine which VEGF receptor(s) are involved in PLC-gamma activation in primary endothelial cells, HUVEC cells were treated with native VEGF or VEGF receptor-selective variants and PLC-gamma phosphorylation was assessed after immunoprecipitation.
Passage 4–7 HUVEC cells (Cell Systems, Kirkland, Wash.) were grown in Cell System's complete medium (AZ0-500) with 10% fetal calf serum and growth factors on gelatin-coated dishes and made quiescent by 14 hour starvation in 0.2% serum. […] The cells were then lysed in 0.5–1 ml RIPA buffer containing 0.1 mM sodium orthovanadate, 5 mM para-nitrophenylphosphate, 10 mM sodium fluoride, 0.5 micromolar okadaic acid and a protease inhibitor cocktail (Roche MB 1836145). PLC-gamma was then immunoprecipitated from whole cell lysates using monoclonal antibodies (Upstate Biotechnology) and analyzed for tyrosine phosphorylation (FIG. 13A) or lysates were immunoprecipitated with monoclonal antibodies against p85 PI 3′-kinase (purchased from Transduction Labs (P13020) and Neomarkers (MS424-P)) and tested for phosphotyrosine using phosphotyrosine antibodies PY20 or E120H (Transduction Labs) (FIG. 13B). Immunoprecipitation was conducted as follows. Protein A/G beads (Pierce) were blocked for nonspecific protein binding in 50 mM HEPES pH 7.2, 0.1% TX-100, 150 mM NaCl and 1 mg/ml ovalbumin for 30 minutes. Antibodies were precoupled in the same buffer for 1 hour at 4° C. with head over end rotation and beads were washed 3 times in lysis buffer. Beads were added to the lysates and rotated overnight. Beads were washed sequentially in 50 mM Tris pH 7.6, 150 mM NaCl, 1% TX-100, 1 mM CaCl2; 50 mM Tris pH 7.6, 500 mM NaCl, 0.1% TX-100, 1 mM CaCl2 and 50 mM Tris pH 7.6, 150 mM NaCl, 0.05% TX-100, 1 mM CaCl2. Beads were then resuspended in 2× sample buffer and boiled. Supernatants were applied directly to 4–12% Tris-Glycine gradient gels (Novex).

[2] = tested on: p38 stress-activated MAP kinase in HUVEC cells; assay: p38 MAP kinase phosphorylation Western blot; type: cell-based, human; settings: 50 ng/ml or 10 ng/ml, 5 minutes, FIG. 12B
Procedure: VEGF has previously been reported to stimulate the stress-activated, p38 MAP kinase [Rousseau et al., Oncogene, 15:2169–2177 (1997); Yu et al., J. Cell. Phys., 178:235–246 (1999)].
as §1, with “The” for “The HUVEC”, “The phosphorylation state of p38 stress-activated MAP kinase” for “Western blot analysis”, “assessed with an” for “then conducted, probing for phosphorylated ERK1 or ERK2 using”, “p38 specific” for “ERK”, “(NEB).” for “(Promega).”

corneal angiogenesis = assay: Corneal pocket angiogenesis assay; type: in vivo, Sprague-Dawley rats; settings: rat, pellet with 200 ng growth factor, day 6, FIGS. 15A and 15B
Procedure: Assays were performed as described by Polyerini et al., Methods Enzymol., 198:440–450 (1991) with the following modifications. Sprague-Dawley rats were anesthetized using a gas (isoflurane)/injectable ketamine (80 mg/kg)/xylazine (15 mg/kg) combination. The eyes were gently proptosed and secured in place using nontraumatic forceps. With a #15 blade, a 1.5 mm incision was made slightly below the center of the cornea. Using a micro spatula (ST80017, ASSI), the incision was carefully blunt-dissected through the stroma toward the outer canthus of the eye. […] After surgery, the eyes were coated with gentamicin ointment. At day 6, the animals were injected with high molecular weight FITC-dextran and euthanized to allow for visualization of the vasculature. Corneal whole mounts were made of the enucleated eyes and measurements of the neovascular area completed using computer-assisted image analysis (Image-Pro Plus).

[3] = target: T1, Flt-1 transfected NIH3T3 cells (Homo sapiens, UniProt P17948); assay: Receptor-transfected cell binding assay, Flt-1; settings: FIG. 6
T1 construct: expressed in transfected cells; host or cells: NIH3T3 cells
T1 sequence (P17948 27-1338): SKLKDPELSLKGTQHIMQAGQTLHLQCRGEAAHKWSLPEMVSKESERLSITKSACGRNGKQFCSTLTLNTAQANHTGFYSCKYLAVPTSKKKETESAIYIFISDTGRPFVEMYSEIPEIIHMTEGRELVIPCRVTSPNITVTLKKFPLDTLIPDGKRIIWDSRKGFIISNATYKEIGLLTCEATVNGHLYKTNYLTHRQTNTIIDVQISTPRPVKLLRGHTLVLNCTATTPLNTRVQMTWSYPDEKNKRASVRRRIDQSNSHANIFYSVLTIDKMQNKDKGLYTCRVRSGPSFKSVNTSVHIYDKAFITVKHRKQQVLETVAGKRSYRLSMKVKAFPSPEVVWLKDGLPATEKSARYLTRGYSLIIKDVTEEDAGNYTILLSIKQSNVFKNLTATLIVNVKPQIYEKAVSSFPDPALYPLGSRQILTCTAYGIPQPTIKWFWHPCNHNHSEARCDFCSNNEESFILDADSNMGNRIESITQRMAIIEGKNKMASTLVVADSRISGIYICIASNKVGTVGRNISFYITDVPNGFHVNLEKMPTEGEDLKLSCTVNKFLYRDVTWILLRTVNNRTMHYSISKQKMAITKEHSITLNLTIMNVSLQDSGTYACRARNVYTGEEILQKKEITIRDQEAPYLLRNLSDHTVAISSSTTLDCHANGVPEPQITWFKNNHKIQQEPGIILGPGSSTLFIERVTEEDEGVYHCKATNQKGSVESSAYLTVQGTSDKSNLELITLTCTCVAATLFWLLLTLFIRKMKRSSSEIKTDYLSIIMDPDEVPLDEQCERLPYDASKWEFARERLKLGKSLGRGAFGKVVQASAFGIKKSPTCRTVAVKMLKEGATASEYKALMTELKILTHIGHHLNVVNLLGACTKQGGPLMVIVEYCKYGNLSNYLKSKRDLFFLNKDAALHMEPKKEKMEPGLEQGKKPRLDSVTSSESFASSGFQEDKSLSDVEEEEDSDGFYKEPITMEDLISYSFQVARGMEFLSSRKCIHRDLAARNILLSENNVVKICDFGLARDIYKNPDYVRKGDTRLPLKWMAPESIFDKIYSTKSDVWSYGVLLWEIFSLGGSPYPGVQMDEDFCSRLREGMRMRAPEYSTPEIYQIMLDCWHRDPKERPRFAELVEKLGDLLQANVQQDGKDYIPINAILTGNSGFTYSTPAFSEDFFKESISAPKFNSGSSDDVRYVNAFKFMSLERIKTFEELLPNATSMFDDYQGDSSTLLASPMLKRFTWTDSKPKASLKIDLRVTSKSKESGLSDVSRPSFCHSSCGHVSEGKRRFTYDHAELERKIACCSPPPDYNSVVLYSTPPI
Procedure: (§2) The assay is described in detail in Example 7. Each point represents the average of duplicate determinations, and errors are estimated to be less than 15% of the values.
(§3) KDR or Flt-1 transfected NIH3T3 cells were prepared as described by Fuh et al., J. Biol. Chem., 273:11187–11204 (1998). The transfected cells were maintained in F12 media supplemented with 10% FBS and 400 ug/ml G418 (GibcoBRL). For the binding assays, the cells were plated in 12-wells plates at 1×10^6/well to reach confluency next day. The cells were then washed and blocked in Hank's buffered saline (HBS) with 1% BSA for one hour before adding ^125I-VEGF (1–109) (prepared by standard chloramine-T methods) and increasing concentrations of unlabeled VEGF variants. 50 pM and 10 pM of labeled VEGF (1–109) was used for KDR and Flt-1 cell binding, respectively. The plates were incubated at 4° C. for three hours and then washed two times with HBS with 0.5% BSA. The bound, labeled VEGF was collected by solubilizing the washed cells with 1N NaOH, and then counted in a gamma-counter (Isodata, ICN).

Flt-1 receptor = assay: RIA assay, binding to FLT-1 receptor; settings: FIG. 8B
Sequence of Flt-1 receptor (P17948 27-331 limits assumed): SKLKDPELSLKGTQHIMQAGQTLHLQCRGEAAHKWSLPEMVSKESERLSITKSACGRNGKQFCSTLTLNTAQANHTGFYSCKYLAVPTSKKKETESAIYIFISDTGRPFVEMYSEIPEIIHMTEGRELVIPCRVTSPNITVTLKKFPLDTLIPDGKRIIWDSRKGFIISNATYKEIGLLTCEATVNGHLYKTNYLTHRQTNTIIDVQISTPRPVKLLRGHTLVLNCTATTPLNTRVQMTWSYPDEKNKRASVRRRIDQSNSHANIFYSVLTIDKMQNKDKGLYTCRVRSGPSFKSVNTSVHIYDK
Procedure: (§4) Various assays were conducted to examine the properties and biological activities of the I43A/I46A/Q79A/I83A Flt-sel variant. For example, quantitative binding measurements were carried out using a soluble radio-immuno receptor-binding assay (RIA), as described in Example 6 above.

KDR receptor = assay: RIA assay, binding to KDR receptor; settings: compared to native VEGF, FIG. 8A
Sequence of KDR receptor (P35968 20-327 limits assumed): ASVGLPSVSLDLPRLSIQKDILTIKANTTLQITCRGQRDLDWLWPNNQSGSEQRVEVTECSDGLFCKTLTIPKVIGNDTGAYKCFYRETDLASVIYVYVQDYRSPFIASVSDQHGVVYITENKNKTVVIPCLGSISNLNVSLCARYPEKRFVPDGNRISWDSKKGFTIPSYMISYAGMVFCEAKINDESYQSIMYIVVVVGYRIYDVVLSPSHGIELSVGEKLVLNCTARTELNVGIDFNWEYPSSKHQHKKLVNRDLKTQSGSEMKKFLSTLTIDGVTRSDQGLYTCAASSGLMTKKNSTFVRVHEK
Procedure: as §4

[4] = target: T2, KDR transfected NIH3T3 cells (Homo sapiens, UniProt P35968); assay: Receptor-transfected cell binding assay, KDR; settings: displacement of 125I-VEGF, 4° C., three hours, FIG. 5
T2 construct: expressed in transfected cells; host or cells: NIH3T3 cells
T2 sequence (P35968 20-1356): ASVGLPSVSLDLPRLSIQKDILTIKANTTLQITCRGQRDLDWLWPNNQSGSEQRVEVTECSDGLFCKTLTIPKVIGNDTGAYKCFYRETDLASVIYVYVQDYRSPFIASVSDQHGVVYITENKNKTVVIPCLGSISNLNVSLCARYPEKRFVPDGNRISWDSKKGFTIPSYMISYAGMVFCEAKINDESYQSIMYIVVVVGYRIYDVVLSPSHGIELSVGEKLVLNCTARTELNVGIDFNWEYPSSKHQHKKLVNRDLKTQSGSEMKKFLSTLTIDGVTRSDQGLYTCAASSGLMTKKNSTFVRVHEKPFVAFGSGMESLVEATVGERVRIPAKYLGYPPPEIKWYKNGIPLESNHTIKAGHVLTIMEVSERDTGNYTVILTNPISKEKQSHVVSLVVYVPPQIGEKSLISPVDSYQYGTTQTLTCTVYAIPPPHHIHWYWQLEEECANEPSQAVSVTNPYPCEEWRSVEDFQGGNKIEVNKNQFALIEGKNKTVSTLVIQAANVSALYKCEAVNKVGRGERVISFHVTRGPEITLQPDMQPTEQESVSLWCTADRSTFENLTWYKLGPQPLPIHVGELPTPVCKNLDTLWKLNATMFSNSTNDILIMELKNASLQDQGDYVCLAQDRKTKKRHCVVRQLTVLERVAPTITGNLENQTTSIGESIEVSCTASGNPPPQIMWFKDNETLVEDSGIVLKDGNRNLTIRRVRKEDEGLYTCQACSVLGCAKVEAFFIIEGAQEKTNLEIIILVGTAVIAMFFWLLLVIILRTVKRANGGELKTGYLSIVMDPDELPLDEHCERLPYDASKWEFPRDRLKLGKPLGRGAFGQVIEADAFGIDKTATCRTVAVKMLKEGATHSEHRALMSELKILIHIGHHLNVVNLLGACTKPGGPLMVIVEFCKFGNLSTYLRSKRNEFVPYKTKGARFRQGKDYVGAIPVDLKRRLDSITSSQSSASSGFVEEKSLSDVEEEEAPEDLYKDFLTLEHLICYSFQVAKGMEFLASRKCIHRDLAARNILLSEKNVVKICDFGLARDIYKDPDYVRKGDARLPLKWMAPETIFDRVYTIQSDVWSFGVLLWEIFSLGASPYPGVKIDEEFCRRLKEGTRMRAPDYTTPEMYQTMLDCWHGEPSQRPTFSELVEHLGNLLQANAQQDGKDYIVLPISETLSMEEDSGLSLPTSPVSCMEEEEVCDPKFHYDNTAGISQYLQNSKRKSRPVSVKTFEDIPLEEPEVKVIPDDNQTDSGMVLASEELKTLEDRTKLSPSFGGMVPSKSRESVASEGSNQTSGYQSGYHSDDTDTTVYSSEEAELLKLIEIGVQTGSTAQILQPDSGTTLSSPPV
Procedure: as §2, §3

[5] = tested on: MMP-9 secretion by human aorta smooth muscle cells (ASMC); assay: Matrix metalloprotease 9 assay (gelatin zymography); type: cell-based; settings: 40 ng/ml, 24 hours, compared to native VEGF(1–109) or PlGF, FIG. 11
Procedure: An assay that measures the secretion of matrix metalloprotease 9 following activation of Flt-1 expressed on human smooth aorta muscle cells was conducted (Wang and Keiser, Circ. Res., 83:832–840 (1998)). Human aorta smooth muscle cells (ASMC) (Clonetics) were maintained in SM2 media (Clonetics) at 37° C. in 5% CO2 and 95% ambient air in the presence of 10% fetal bovine serum in 6-well polystyrene plates (Becton-Dickinson). When, cells attained 90% confluence, they were growth-arrested for 24 hours in serum-free medium containing 0.2% bovine serum albumin (BSA). […] After electrophoresis, proteins were renatured by incubation of the gels for 30 minutes at room temperature in Renaturing Buffer and in Developing Buffer (Novex) for overnight at 37° C. The gels were stained with 0.25% Coomassie Brilliant Blue (Sigma). Gelatinase activity was identified as lightly stained or clear bands following destaining.
Shown is a representative zymogram of one of two independent experiments. Fold change represents the relative band density of the VEGF(1–109)-, VEGF(1–109) variants- or PlGF-treated groups versus the vehicle-treated (PBS) control.

Row | Molecule | promotion of HUVEC cell migration (HUVEC cells) | phosphorylation of ERK1 and ERK2 [1] | PLC-gamma phosphorylation (PLC-gamma in HUVEC cells) | p38 phosphorylation [2] | induction of corneal angiogenesis (corneal angiogenesis) | binding to Flt-1-transfected cells [3] | affinity for Flt-1 compared to native protein (RIA) (Flt-1 receptor) | fold reduced KDR-binding affinity (RIA) (KDR receptor) | binding to KDR-transfected NIH3T3 cells [4] | stimulation of MMP-9 secretion [5]
1 | LK-VRB-2f: full length 1–165 VEGF variant with D63S/G65M/L66R | as effective as the native VEGF | triggered phosphorylation of ERK1 and ERK2 | able to stimulate PLC-gamma phosphorylation to a similar extent | able to stimulate p38 phosphorylation | as efficient as native VEGF in inducing corneal angiogenesis |  |  |  |  | 
2 | B1 |  |  |  |  |  | slightly improved binding | essentially identical to that of the native protein | at least 470 fold | no detectable binding | fully active
